Data set [1] concerns Septoria tritici. Kind of data set: In vivo preventive test on Septoria tritici (wheat). The conditions noted are these: wheat plants, 24 days after contamination. As to the method:
In Vivo Preventive Test on Septoria tritici (Wheat) […] Wheat plants (“Scipion” variety), sown in starter cups on a 50/50 peat soil pozzolana substrate and grown at 22° C., are treated at the 1 leaf stage (10 cm height) by spraying with the active ingredient prepared as described above. Plants, used as controls, are treated with the mixture of acetone/tween/DMSO/water not containing the active material. After 24 hours, the plants are contaminated by spraying the leaves with an aqueous suspension of cryopreserved Septoria tritici spores (500 000 spores per mL). The contaminated wheat plants are incubated for 72 hours at 18° C. and at 100% relative humidity, and then for 21 days at 90% relative humidity. Grading (% of efficacy) is carried out 24 days after the contamination, in comparison with the control plants.

Data set [2] deals with Uromyces appendiculatus. The data set can be described thus: In vivo preventive test on Uromyces appendiculatus (bean rust). Conditions: bean plants, 11 days after contamination. As for the experimental part:
In Vivo Preventive Test on Uromyces appendiculatus (Bean Rust) […] Bean plants (“Saxa” variety), sown in starter cups on a 50/50 peat soil pozzolana substrate and grown at 24° C., are treated at the 2 leaf stage (9 cm height) by spraying with the active ingredient prepared as described above. Plants, used as controls, are treated with the mixture of acetone/tween/DMSO/water not containing the active material. After 24 hours, the plants are contaminated by spraying the leaves with an aqueous suspension of Uromyces appendiculatus spores (150 000 spores per mL). The spores are collected from infected plants and are suspended in water containing 2.5 mL/L of Tween 80 at 10%. […] Grading (% of efficacy) is carried out 11 days after the contamination, in comparison with the control plants.

Data set [3] can be described thus: log P by HPLC on a reversed-phase column (C 18), EEC Directive 79/831 Annex V.A8. Type of data set: physicochemical. The conditions noted are these: for logP: HPLC on reversed-phase column (C 18), 40° C., linear gradient 10% to 90% acetonitrile. As to the method:
In table 1, the log P values were determined in accordance with EEC Directive 79/831 Annex V.A8 by HPLC (High Performance Liquid Chromatography) on a reversed-phase column (C 18), using the method described below: Temperature: 40° C.; Mobile phases: 0.1% aqueous formic acid and acetonitrile; linear gradient from 10% acetonitrile to 90% acetonitrile. Calibration was carried out using unbranched alkan-2-ones (comprising 3 to 16 carbon atoms) with known log P values (determination of the log P values by the retention times using linear interpolation between two successive alkanones). lambda-max-values were determined using UV-spectra from 200 nm to 400 nm and the peak values of the chromatographic signals.

Data set [4] has as its system Sphaerotheca fuliginea. Kind of data set: In vivo preventive test on Sphaerotheca fuliginea (powdery mildew on cucurbits). Conditions: gherkin plants, 12 days after contamination. As for the experimental part:
In Vivo Preventive Test on Sphaerotheca fuliginea (Powdery Mildew on Cucurbits) […] Gherkin plants (“Vert petit de Paris” variety), sown in starter cups on a 50/50 peat soil-pozzolana substrate and grown at 24° C., are treated at the Z11 cotyledon stage by spraying with the active ingredient prepared as described above. Plants, used as controls, are treated with the mixture of acetone/tween/DMSO/water not containing the active material. After 24 hours, the plants are contaminated by spraying the cotyledons with an aqueous suspension of Sphaerotheca fuliginea spores (100 000 spores per mL). The spores are collected from infected plants. […] Grading (% of efficacy) is carried out 12 days after the contamination, in comparison with the control plants.

Data set [5] has as its system Puccinia recondita. The data set can be described thus: In vivo preventive test on Puccinia recondita (brown rust on wheat). Conditions: wheat plants, 12 days after contamination. As for the experimental part:
In Vivo Preventive Test on Puccinia recondita (Brown Rust on Wheat) […] Wheat plants (“Scipion” variety), sown in starter cups on a 50/50 peat soil pozzolana substrate and grown at 22° C., are treated at the 1 leaf stage (10 cm height) by spraying with the active ingredient prepared as described above. Plants, used as controls, are treated with the mixture of acetone/tween/DMSO/water not containing the active material. After 24 hours, the plants are contaminated by spraying the leaves with an aqueous suspension of Puccinia recondita spores (100 000 spores per mL). The spores are collected from an infected plant and are suspended in water containing 2.5 mL/L of Tween 80 at 10%. […] Grading (% of efficacy) is carried out 12 days after the contamination, in comparison with the control plants.

Where [6] appears, read: 0.1% aqueous formic acid and acetonitrile.
The mark [7] stands for this setting: Podosphaera fuliginea, 288 h, 500 ppm of active ingredient, read-out: Efficacy.
The mark [8] stands for this setting: reversed-phase HPLC column (C 18), HPLC, C 18, 40° C., 0.1% aqueous formic acid and acetonitrile, read-out: logP.

37 compounds from patent US10125126B2, “N-cycloalkyl-N-[(heterocyclylphenyl)methylene]-(thio)carboxamide derivatives” (BAYER CROPSCIENCE AG, priority 2012, dated 2018) can be followed below.

Where two headings read alike, the source gives them in different places. Some results are limits rather than exact numbers.

Broadly, the logP is a log measure of how a compound divides between an organic and an aqueous phase. A lower logP goes with a more hydrophilic compound. Turning to `Cn1nc(C(F)F)c(C(=S)N(Cc2cc(Cl)ccc2-c2cccs2)C2CC2)c1Cl` [I.79], the values for the Efficacy in data set [1] (500 ppm of active ingredient) and in data set [2] (500 ppm of active ingredient) were 75% and 100%, respectively. In data set [3] (setting [6]), this compound registered a logP of 4.92.
With `Cn1nc(C(F)F)c(C(=O)N(Cc2ccccc2-c2cccc(Cl)n2)C2CC2)c1F` [CMP3, N-[2-(6-chloropyridin-2-yl)benzyl]-N-cyclopropyl-3-(difluoromethyl)-5-fluoro-1-methyl-1H-pyrazole-4-carboxamide, reference compound], the pest or weed control at 500 ppm in data set [4] (setting [7]) was less than 40%.
As for `Cc1nn(C)c(C)c1-c1ccc(Cl)cc1CN(C(=O)c1c(C(F)F)nn(C)c1F)C1CC1` [I.113], the Efficacy in data set [1] (500 ppm of active ingredient) amounted to 70%; in data set [4] (500 ppm of active ingredient), 98%. Further, the logP in data set [3] (setting [6]) is recorded as 2.98.
As for `Cn1nc(C(F)F)c(C(=O)N(Cc2cc(F)ccc2C2(C)CO2)C2CC2)c1Cl` (centres unmarked) [I.8], the Efficacy in data set [2] (100 ppm of active ingredient) is 95%; in data set [5] (100 ppm of active ingredient), 94%. The compound also yielded a lipophilicity (logP) in data set [3] (setting [6]) of 3.00.
For the compound `Cn1nc(C(F)F)c(C(=O)N(Cc2cc(Cl)ccc2-c2cccs2)C2CC2)c1Cl` [I.77], the Efficacy in data set [2] (500 ppm of active ingredient) turned out to be 84%. The same compound gave a logP in data set [3] (setting [6]) of 4.29.
In turn, `Cc1ccc(-c2cnn(C)c2)c(CN(C(=O)c2c(C(F)F)nn(C)c2F)C2CC2)c1` [I.58] registered an Efficacy in data set [1] (100 ppm of active ingredient) of 97%. Moreover, the logP in data set [3] (setting [6]) worked out at 2.63.
As for `CC1OCC1c1ccccc1CN(C(=O)c1c(C(F)F)nn(C)c1Cl)C1CC1` (centres unmarked) [I.16], the Efficacy in data set [1] (500 ppm of active ingredient) came to 90%. In data set [3] (setting [6]), the logP came to 2.08.
For the compound `Cn1cc(C(=O)N(Cc2cc(Cl)ccc2-c2cccs2)C2CC2)c(C(F)F)n1` [I.71], the Efficacy amounted to 90% in data set [1] (500 ppm of active ingredient), 81% in data set [2] (500 ppm of active ingredient) and 98% in data set [4] (500 ppm of active ingredient). The compound further displayed a logP in data set [3] (setting [6]) of 3.69.
Turning to `Cc1ccc(-c2ccoc2)c(CN(C(=O)c2c(C(F)F)nn(C)c2F)C2CC2)c1` [I.39], the values for the Efficacy in data set [1] (100 ppm of active ingredient) and in data set [5] (100 ppm of active ingredient) were 80% and 88%, respectively. The logP in data set [3] (setting [6]) worked out at 3.55.
`Cn1cc(C(=O)N(Cc2ccc(-c3cccnc3)cc2Cl)C2CC2)c(C(F)F)n1` [CMP1, N-[2-chloro-4-(pyridin-3-yl)benzyl]-N-cyclopropyl-3-(difluoromethyl)-1-methyl-1H-pyrazole-4-carboxamide, reference compound]: the pest or weed control at 100 ppm in data set [4] (Podosphaera fuliginea, 288 h, 100 ppm of active ingredient, read-out: Efficacy) was found to be 0%.
With `Cn1cc(C(=O)N(Cc2ccccc2-c2cccc(Cl)n2)C2CC2)c(C(F)F)n1` [CMP4, N-[2-(6-chloropyridin-2-yl)benzyl]-N-cyclopropyl-3-(difluoromethyl)-1-methyl-1H-pyrazole-4-carboxamide, reference compound], the pest or weed control at 500 ppm in data set [4] (setting [7]) is less than 40%.
`CC(C)c1ccc(-c2cnn(C)c2)cc1CN(C(=O)c1c(C(F)F)nn(C)c1F)C1CC1` [I.65] displayed a logP in data set [3] (setting [6]) of 3.13.
With `c1ccc(-c2ccsc2)c(CNC2CC2)c1` [IIa.3, N-[2-(3-thienyl)benzyl]cyclopropanamine], the chromatographic logP in data set [3] (setting [8]) worked out at 1.34.
The compound `Cc1ccc(-c2csc3ccccc23)c(CN(C(=O)c2c(C(F)F)nn(C)c2Cl)C2CC2)c1` [I.162] came in with a logP in data set [3] (setting [6]) of 4.83.
In data set [3] (setting [6]), `Cc1ccc(-c2cscc2C)c(CN(C(=O)c2c(C(F)F)nn(C)c2Cl)C2CC2)c1` [I.107] displayed a logP of 4.41.
The compound `Cn1nc(C(F)F)c(C(=O)N(Cc2c(C3(C)CO3)ccc(Cl)c2Cl)C2CC2)c1F` (centres unmarked) [I.9] came in with a logP in data set [3] (setting [6]) of 3.55.
`Clc1ccc(-c2ccco2)c(CNC2CC2)c1` [IIa.1, N-[5-chloro-2-(2-furyl)benzyl]cyclopropanamine]: the chromatographic logP in data set [3] (setting [8]) was found to be 0.99.
`Cn1nc(C(F)F)c(C(=O)N(Cc2c(C3(C)CO3)ccc(Cl)c2F)C2CC2)c1F` (centres unmarked) [I.13] had a logP in data set [3] (setting [6]) of 3.29.
The compound `C=C(C)c1ccc(Cl)cc1CN(C(=O)c1c(C(F)F)nn(C)c1F)C1CC1` [N-[5-chloro-2-(prop-1-en-2-yl)benzyl]-N-cyclopropyl-3-(difluoromethyl)-5-fluoro-1-methyl-1H-pyrazole-4-carboxamide] had a chromatographic logP in data set [3] (logP) of 3.96.
Compound `Cc1cc(C(=O)N(Cc2cc(-c3ccc(Cl)s3)ccc2Cl)C2CC2)c(C)o1` [I.152] registered a logP in data set [3] (setting [6]) of 5.54.
The compound `O=C(c1ccsc1I)N(Cc1cc(-c2cccs2)ccc1Cl)C1CC1` [I.91] gave a logP in data set [3] (setting [6]) of 4.91.
Consider `Cc1ccc(-c2csc3ccccc23)c(CN(C(=O)c2c(C(F)F)nn(C)c2F)C2CC2)c1` [I.160], for which the Efficacy in data set [1] (100 ppm of active ingredient) is 71%; in data set [2] (100 ppm of active ingredient), 77%; in data set [4] (100 ppm of active ingredient), 98%. In data set [3] (setting [6]), the logP is recorded as 4.64.
For `Cc1ccc(-c2ccn(C)c2)c(CN(C(=O)c2c(C(F)F)nn(C)c2Cl)C2CC2)c1` [I.53], the logP in data set [3] (setting [6]) came to 3.69.
Turning to `CC1CC1N(Cc1ccccc1-c1ccsc1)C(=O)c1c(C(F)F)nn(C)c1Cl` (centres unmarked) [I.88], the Efficacy is 79% in data set [1] (500 ppm of active ingredient) and 94% in data set [5] (500 ppm of active ingredient). The compound further yielded a logP in data set [3] (setting [6]) of 3.92.
For `Cn1nc(C(F)F)c(C(=S)N(Cc2ccccc2-c2ccc(Cl)s2)C2CC2)c1Cl` [I.142], the logP in data set [3] (setting [6]) was determined as 5.19.
On the same count and under the same terms, as for `Cn1cc(C(=O)N(Cc2cc(-c3cccs3)ccc2Cl)C2CC2)c(C(F)F)c1` [I.90], the figure is 4.16.
As to `Cn1nc(C(F)F)c(C(=O)N(Cc2ccccc2-c2cccc(Cl)n2)C2CC2)c1Cl` [CMP5, 5-chloro-N-[2-(6-chloropyridin-2-yl)benzyl]-N-cyclopropyl-3-(difluoromethyl)-1-methyl-1H-pyrazole-4-carboxamide, reference compound], the pest or weed control at 500 ppm in data set [4] (setting [7]) is less than 40%.
In data set [3] (setting [6]), `Cn1nc(C(F)F)c(C(=O)N(Cc2c(C3(C)CO3)ccc(Cl)c2F)C2CC2)c1Cl` (centres unmarked) [I.10] gave a logP of 3.37.
The compound `Cc1ccc(-c2c(C)nn(C)c2C)c(CN(C(=O)c2c(C(F)F)nn(C)c2Cl)C2CC2)c1` [I.117] yielded a logP in data set [3] (setting [6]) of 2.80.
On the same count and under the same terms, with `Cc1ccc(-c2cscc2C)c(CN(C(=O)c2cn(C)nc2C(F)F)C2CC2)c1` [I.109] the figure was 3.83.
Same read-out and setting: as for `Cc1ccc(-c2ccsc2Cl)c(CN(C(=O)c2cn(C)nc2C(F)F)C2CC2)c1` [I.149], the figure is 3.85; as for `Cc1ccc(-c2cnn(C)c2)c(CN(C(=O)c2c(C(F)F)nn(C)c2Cl)[C@@H]2C[C@H]2C)c1` (relative stereo) [I.64], 2.86.
The same measure, in the same setting: with `Cn1cc(C(=O)N(Cc2ccccc2-c2ccco2)C2CC2)c(C(F)F)c1` [I.42] the figure was 3.44; with `CC(C)c1ccc(-c2cn(C)c3ccccc23)cc1CN(C(=O)c1c(C(F)F)nn(C)c1F)C1CC1` [I.153], 4.74; with `Cn1nc(C(F)F)c(C(=O)N(Cc2ccccc2C23CCCC2O3)C2CC2)c1F` (centres unmarked) [I.19], 3.12.
Consider `Cc1nn(C)c(C)c1-c1ccc(F)cc1CN(C(=O)c1c(C(F)F)nn(C)c1F)C1CC1` [I.112], for which the results for the Efficacy in data set [1] (500 ppm of active ingredient), in data set [5] (500 ppm of active ingredient) and in data set [4] (500 ppm of active ingredient) were 100%, 83% and 100%, respectively. The same compound returned a logP in data set [3] (setting [6]) of 2.66.
`Cn1nc(C(F)F)c(C(=O)N(Cc2cc(-c3ccsc3)ccc2Cl)C2CC2)c1Cl` [I.94] yielded a logP in data set [3] (setting [6]) of 4.16.
